Test results as given in patent publication US9381224B2, “Plant based formulation for the prevention and management of metabolic syndrome and cardiovascular disease mortality risk” (priority 2014, dated 2016).

System: Metabolic Syndrome cases
Experiment: Clinical study in diagnosed Metabolic Syndrome cases
Assay type: in vivo, human
Procedure: The study population consisted of 128 diagnosed Metabolic Syndrome cases (76 Men and 52 Women), aged 52.81±9.68 years at study entry. The cases were diagnosed as per criteria given by WHO for classification and diagnosis of Metabolic Syndrome.
After preliminary screening the subjects showing association with 3 or more than 3 above factors were selected. The clinical trial was conducted in three groups—
44 cases were treated with Ayurvedic formulation.
Body mass index (BMI) was calculated following formula {weight (kg)÷ height (m2)} and anthropometer was used for circumference measurement. Lipid profile including triglyceride was estimated by standard laboratory kits. TNF-[…], interleukin-6 was measured by ELISA kit, adiponectin by radioimmunoassay kit. CRP by kit for quantitative nephelometric determination of CRP in human serum or plasma by Turbox/Turbox analyzer and ELISA activity assay kit for Leptin level. Subjects suffering from any other disease known to affect the study parameters were excluded from the series. Upon recruitment all subjects gave informed written consent.

Question: CCCCCCCCCCC[C@@H](C[C@@H]1OC(=O)[C@H]1CCCCCC)OC(=O)[C@H](CC(C)C)NC=O [Conventional drug, Orlistat] was tested. Which HbA1c (After 3 months) did it give?
Answer: 5.93%

Question: What about the PAI-1 (After 3 months) of the same compound?
Answer: 37.42 ng/mL

Question: And the tPA-1 (After 3 months)?
Answer: 19.45 ng/mL

Question: And the Adiponectin (After 6 months)?
Answer: 7.39 µg/mL

Question: And the “Apolipo (B)” value (After 6 months)?
Answer: 152.87 mg/dL

Question: And the Diastolic blood pressure (After 6 months)?
Answer: 86.24 mmHg

Question: What about the Endothelin (After 6 months) of the same compound?
Answer: 988.73 pg/mL

Question: What about the Fasting blood glucose (After 6 months) of the same compound?
Answer: 108.42 mg/dL

Question: What about the HDL-c (After 6 months) of the same compound?
Answer: 43.02 mg/dL

Question: And the HbA1c (After 6 months)?
Answer: 5.24%

Question: What about the Interleukin-6 (After 6 months) of the same compound?
Answer: 2.12 pg/mL

Question: And the LDL-c (After 6 months)?
Answer: 114.32 mg/dL

Question: And the Leptin (After 6 months)?
Answer: 25.73 µg/L

Question: What about the PAI-1 (After 6 months) of the same compound?
Answer: 32.98 ng/mL

Question: What about the Postprandial blood glucose (After 6 months) of the same compound?
Answer: 179.45 mg/dL

Question: What about the Systolic blood pressure (After 6 months) of the same compound?
Answer: 124.87 mmHg

Question: And the TNF-α (After 6 months)?
Answer: 488.90 pg/mL

Question: And the Total cholesterol (After 6 months)?
Answer: 216.92 mg/dL

Question: What about the Triglycerides (After 6 months) of the same compound?
Answer: 287.93 mg/dL

Question: And the “hs CRP” value (After 6 months)?
Answer: 3.64 mg/L

Question: What about the tPA-1 (After 6 months) of the same compound?
Answer: 18.46 ng/mL

Question: And the CD36 (Gender F, After 3 months)?
Answer: 156.42 ng/mL

Question: What about the CD36 (Gender F, After 6 months) of the same compound?
Answer: 155.90 ng/mL

Question: And the CD36 (Gender F, Initial)?
Answer: 142.90 ng/mL

Question: What about the CD36 (Gender M, After 3 months) of the same compound?
Answer: 173.64 ng/mL

Question: What about the CD36 (Gender M, After 6 months) of the same compound?
Answer: 196.22 ng/mL

Question: And the Adiponectin (Initial)?
Answer: 6.92 µg/mL

Question: And the “Apolipo (B)” value (Initial)?
Answer: 188.73 mg/dL

Question: And the Diastolic blood pressure (Initial)?
Answer: 89.04 mmHg

Question: What about the Endothelin (Initial) of the same compound?
Answer: 1286.93 pg/mL

Question: And the Fasting blood glucose (Initial)?
Answer: 136.42 mg/dL

Question: And the HDL-c (Initial)?
Answer: 41.62 mg/dL

Question: And the HbA1c (Initial)?
Answer: 6.82%

Question: What about the Interleukin-6 (Initial) of the same compound?
Answer: 2.25 pg/mL

Question: And the LDL-c (Initial)?
Answer: 139.72 mg/dL

Question: And the Leptin (Initial)?
Answer: 36.42 µg/L

Question: What about the PAI-1 (Initial) of the same compound?
Answer: 40.12 ng/mL

Question: What about the Postprandial blood glucose (Initial) of the same compound?
Answer: 231.68 mg/dL

Question: What about the Systolic blood pressure (Initial) of the same compound?
Answer: 136.68 mmHg

Question: What about the TNF-α (Initial) of the same compound?
Answer: 622.45 pg/mL

Question: And the Total cholesterol (Initial)?
Answer: 247.90 mg/dL

Question: And the Triglycerides (Initial)?
Answer: 354.86 mg/dL

Question: And the “hs CRP” value (Initial)?
Answer: 4.93 mg/L

Question: And the tPA-1 (Initial)?
Answer: 21.23 ng/mL
